Laboratory results from PubChem BioAssay (NCI).
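Five compound concentrations were applied to cells in 96-well plates for 48 hours; endpoints were derived by simple linear interpolation of the resulting dose-response curve. Here, GI50 denotes the concentration required for 50% inhibition of growth. The concentration for full growth arrest is given as TGI.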

Test system: RPMI-8226 leukemia
Assay: NCI anticancer screen, dose series, 48 h

| SMILES | GI50 [µM] | TGI [µM] |
| --- | --- | --- |
| CCCCCCCC(=O)SCC/C=C/[C@@H]1CC(=O)NCc2cccc(n2)C2=N[C@@](C)(CS2)C(=O)N[C@@H](C(C)C)C(=O)N1 | 0.639 | > 33.3 |
| COc1cc2c(c(OC)c1O)C(=O)C(OC)C(c1ccc(O)c(O)c1)O2 (centres undefined) | 0.285 | 12.9 |
| Cn1ccnc1C(=O)/C=C/c1ccc(CC(=O)Nc2ccc(Br)cc2)cc1 | 2.76 | 8.11 |
| Cc1cnc(NC(=O)C(Cc2ccccc2)NC(=O)c2ccccc2)s1 (centres undefined) | 2.7 | 9.04 |
| CCOC(=O)COc1cccc2c1C(=O)CCO2 |  | > 100 |
| CC(C)c1ccc(C(C)C(=O)N(CC2=C(C(C)c3ccccn3)c3ccccc3C2)C(C)C)cc1 (centres undefined) | 2.32 | 7.52 |
| CSc1ccc(/C=C2\CN(C)C/C(=C\c3ccc(SC)cc3)C2=O)cc1 |  | > 100 |
| Cc1nc2c(nc1C)C(=O)c1ccccc1C2=O |  | 45.9 |
| O[C@H]1[C@H]2c3cc4c(cc3CN3CCC(=C[C@@H]1O)[C@H]23)OCO4 |  | 5.03 |
| O=C(Nc1ccc(I)cc1)c1cc([N+](=O)[O-])ccc1O | 2.65 | 8.78 |
| Cc1cc(=O)n2[nH]c(-c3ccc(C(C)(C)C)cc3)cc2n1 | 3.89 | 54.8 |
| O=C(O)c1cc(C(=O)O)cc(N2C(=O)c3ccccc3C2=O)c1 |  | > 100 |
| CNC(=O)c1ccccc1Nc1nc(Nc2ccc(N3CCOCC3)cc2OC)ncc1Cl | 2.02 | > 48.5 |
| O=C(N/C(=C\c1cc(Cl)ccc1Cl)c1nc2[nH]c(=S)[nH]c(=O)c2[nH]1)c1ccccc1 |  | 42.7 |
| O=C(CN1CCN(c2cc3c(cc2F)c(=O)c(C(=O)N/N=C/c2ccccc2O)cn3C2CC2)CC1)N/N=C\c1ccccc1O | 0.557 | > 100 |
| C=C(CNCCO)[C@@H]1CC[C@]2(CO)CC[C@]3(C)[C@H](CC[C@@H]4[C@@]5(C)CCC(N)C(C)(C)[C@@H]5CC[C@]43C)[C@@H]12 (some centres undefined) | 2.03 | 4.73 |
| CC(=O)C(CN(C(C)C)C(C)C)C(c1ccccc1)c1c(O)c2ccccc2oc1=O (centres undefined) |  | > 100 |
| NC(CCc1nc(-c2ccc(Cl)cc2)cs1)C(=O)O (centres undefined) |  | > 100 |
| O=C1NC2(CCCCC2)C2CCCCC(O)C12 (centres undefined) |  | > 100 |
| COc1ccc(-n2/c(=N/C(=S)N(C)C)ss/c2=N\C(=S)N(C)C)cc1 |  | > 100 |
| COc1cc(C(=O)/C=C/c2sc(Cl)nc2Cl)cc(OC)c1OC | 1.69 | 4.57 |
| COc1cc2nc(C)nc(N[C@H](C)c3cc(N)cc(C(F)(F)F)c3)c2cc1O[C@H]1CCOC1 | 11 | 47.9 |

Test system: CAKI-1 renal
Assay: NCI anticancer screen, dose series, 48 h

| SMILES | GI50 [µM] | TGI [µM] |
| --- | --- | --- |
| CCCCCCCC(=O)SCC/C=C/[C@@H]1CC(=O)NCc2cccc(n2)C2=N[C@@](C)(CS2)C(=O)N[C@@H](C(C)C)C(=O)N1 | 16.9 | > 33.3 |
| COc1cc2c(c(OC)c1O)C(=O)C(OC)C(c1ccc(O)c(O)c1)O2 (centres undefined) | 0.336 | > 100 |
| Cn1ccnc1C(=O)/C=C/c1ccc(CC(=O)Nc2ccc(Br)cc2)cc1 | 3.59 | 11.6 |
| Cc1cnc(NC(=O)C(Cc2ccccc2)NC(=O)c2ccccc2)s1 (centres undefined) | 33 | > 100 |
| CCOC(=O)COc1cccc2c1C(=O)CCO2 |  | > 100 |
| CC(C)c1ccc(C(C)C(=O)N(CC2=C(C(C)c3ccccn3)c3ccccc3C2)C(C)C)cc1 (centres undefined) | 1.76 | 6.73 |
| CSc1ccc(/C=C2\CN(C)C/C(=C\c3ccc(SC)cc3)C2=O)cc1 |  | > 100 |
| Cc1nc2c(nc1C)C(=O)c1ccccc1C2=O |  | 61.9 |
| O[C@H]1[C@H]2c3cc4c(cc3CN3CCC(=C[C@@H]1O)[C@H]23)OCO4 |  | 4.34 |
| O=C(Nc1ccc(I)cc1)c1cc([N+](=O)[O-])ccc1O | 5.39 | > 100 |
| Cc1cc(=O)n2[nH]c(-c3ccc(C(C)(C)C)cc3)cc2n1 | 2.6 | 32.7 |
| O=C(O)c1cc(C(=O)O)cc(N2C(=O)c3ccccc3C2=O)c1 |  | > 100 |
| CNC(=O)c1ccccc1Nc1nc(Nc2ccc(N3CCOCC3)cc2OC)ncc1Cl | 0.165 | 1.58 |
| O=C(N/C(=C\c1cc(Cl)ccc1Cl)c1nc2[nH]c(=S)[nH]c(=O)c2[nH]1)c1ccccc1 |  | > 100 |
| O=C(CN1CCN(c2cc3c(cc2F)c(=O)c(C(=O)N/N=C/c2ccccc2O)cn3C2CC2)CC1)N/N=C\c1ccccc1O | 1.1 | > 100 |
| C=C(CNCCO)[C@@H]1CC[C@]2(CO)CC[C@]3(C)[C@H](CC[C@@H]4[C@@]5(C)CCC(N)C(C)(C)[C@@H]5CC[C@]43C)[C@@H]12 (some centres undefined) | 4.86 | 18.1 |
| CC(=O)C(CN(C(C)C)C(C)C)C(c1ccccc1)c1c(O)c2ccccc2oc1=O (centres undefined) |  | > 100 |
| NC(CCc1nc(-c2ccc(Cl)cc2)cs1)C(=O)O (centres undefined) |  | > 100 |
| O=C1NC2(CCCCC2)C2CCCCC(O)C12 (centres undefined) |  | > 100 |
| COc1ccc(-n2/c(=N/C(=S)N(C)C)ss/c2=N\C(=S)N(C)C)cc1 |  | > 100 |
| COc1cc(C(=O)/C=C/c2sc(Cl)nc2Cl)cc(OC)c1OC | 1.61 | 2.99 |
| COc1cc2nc(C)nc(N[C@H](C)c3cc(N)cc(C(F)(F)F)c3)c2cc1O[C@H]1CCOC1 | 7.14 | 24.1 |

Test system: HOP-62 NSCLC
Assay: NCI anticancer screen, dose series, 48 h

| SMILES | GI50 [µM] | TGI [µM] |
| --- | --- | --- |
| CCCCCCCC(=O)SCC/C=C/[C@@H]1CC(=O)NCc2cccc(n2)C2=N[C@@](C)(CS2)C(=O)N[C@@H](C(C)C)C(=O)N1 | 1.07 | > 33.3 |
| COc1cc2c(c(OC)c1O)C(=O)C(OC)C(c1ccc(O)c(O)c1)O2 (centres undefined) | 0.712 | > 100 |
| Cn1ccnc1C(=O)/C=C/c1ccc(CC(=O)Nc2ccc(Br)cc2)cc1 | 3.34 | 7.9 |
| Cc1cnc(NC(=O)C(Cc2ccccc2)NC(=O)c2ccccc2)s1 (centres undefined) | 10 | 28 |
| CCOC(=O)COc1cccc2c1C(=O)CCO2 |  | > 100 |
| CC(C)c1ccc(C(C)C(=O)N(CC2=C(C(C)c3ccccn3)c3ccccc3C2)C(C)C)cc1 (centres undefined) | 5.26 | > 100 |
| CSc1ccc(/C=C2\CN(C)C/C(=C\c3ccc(SC)cc3)C2=O)cc1 |  | > 100 |
| Cc1nc2c(nc1C)C(=O)c1ccccc1C2=O |  | 10.3 |
| O[C@H]1[C@H]2c3cc4c(cc3CN3CCC(=C[C@@H]1O)[C@H]23)OCO4 |  | > 27.4 |
| O=C(Nc1ccc(I)cc1)c1cc([N+](=O)[O-])ccc1O | 16.4 | > 100 |
